Experimental data reported in patent US20130109682A1, “CYCLIC ETHER COMPOUNDS USEFUL AS KINASE INHIBITORS” (NOVARTIS AG, priority 2010, published 2013).

What was measured:
[1] = biological target: T1, FLT3D835Y kinase (Homo sapiens, UniProt P36888, D835Y); assay: FLT3D835Y kinase inhibition assay (LanthaScreen TR-FRET); type: biochemical; settings: read-out: FLT3 IC50
T1 sequence (P36888 27-993 D835Y): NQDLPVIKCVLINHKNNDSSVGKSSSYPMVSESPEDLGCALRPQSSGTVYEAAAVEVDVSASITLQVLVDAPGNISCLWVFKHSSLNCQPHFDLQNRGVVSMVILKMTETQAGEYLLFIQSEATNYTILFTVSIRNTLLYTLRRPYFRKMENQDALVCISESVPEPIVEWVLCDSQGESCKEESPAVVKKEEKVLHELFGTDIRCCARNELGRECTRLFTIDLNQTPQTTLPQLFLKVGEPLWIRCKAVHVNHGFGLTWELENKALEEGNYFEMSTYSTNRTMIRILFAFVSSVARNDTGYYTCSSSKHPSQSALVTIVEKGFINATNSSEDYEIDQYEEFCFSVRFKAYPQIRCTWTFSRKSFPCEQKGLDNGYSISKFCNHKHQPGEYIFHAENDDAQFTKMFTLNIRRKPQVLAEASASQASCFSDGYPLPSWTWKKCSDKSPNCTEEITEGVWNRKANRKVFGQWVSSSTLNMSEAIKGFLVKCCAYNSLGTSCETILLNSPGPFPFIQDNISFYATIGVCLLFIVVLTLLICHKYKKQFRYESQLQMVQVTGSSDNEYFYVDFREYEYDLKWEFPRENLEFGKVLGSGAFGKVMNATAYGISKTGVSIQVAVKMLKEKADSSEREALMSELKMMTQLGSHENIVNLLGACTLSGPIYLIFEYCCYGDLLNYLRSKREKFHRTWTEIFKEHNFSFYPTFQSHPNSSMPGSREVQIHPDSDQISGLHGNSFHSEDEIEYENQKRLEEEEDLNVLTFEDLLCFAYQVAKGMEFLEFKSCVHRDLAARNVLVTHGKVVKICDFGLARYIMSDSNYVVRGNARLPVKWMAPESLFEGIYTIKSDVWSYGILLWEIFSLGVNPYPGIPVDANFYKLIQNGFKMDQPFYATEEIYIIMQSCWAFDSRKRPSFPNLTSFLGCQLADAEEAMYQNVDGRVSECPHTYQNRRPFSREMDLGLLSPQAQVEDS
Experimental: FLT3D835Y Kinase Inhibition Assay
LanthaScreen™ is the detection of Time-Resolved Fluorescence Resonance Energy Transfer (TR-FRET) using lanthanide chelates to measure interactions between various binding partners. The application of TR-FRET to assay kinase activity was first described by Mathis (1995). A TR-FRET assay was used to measure FLT3D835Y kinase inhibitory activity. The assay panel was run on a Biomek FX liquid handling workstations. To the assay plates containing […] compound or control solutions, 4.5 μL of buffer A (50 mM TRIS-HCl pH 7.4, 2 mM DTT, 0.02% Tween 20, 0.02 mM Na3VO4, H2O nanpure) including a generic concentration of ATP (2 μM f.c.) was added per well, followed by […] of buffer B (4 uM ATP in Buffer A) including a generic concentration of polyEAY (50 nM f.c.), FLT3D835Y kinase, and divalent cations. Final concentration of kinase and cations were: [FLT3D835Y kinase]=5.7 nM, [Mg]=3 mM, [Mn]=3 mM. After 1 hour of incubation the kinase reactions were stopped by the addition of 4.5 μL of stop solution D (50 mM EDTA, 20 mM TRIS-HCl pH 7.4, 0.04% NP-40) immediately followed by 4.5 μL of buffer A (50 mM TRIS-HCl pH 7.4, 2 mM DTT, 0.02% Tween 20, 0.02 mM Na3VO4, H2O nanpure) including the Tb-labeled P-20 antibody to give a total detection volume of […]. After an incubation time of 45 min in the dark, the plates were transferred into the Pherastar fluorescence reader for counting. The effect of compound on the enzymatic activity was obtained from the linear progress curves and determined from one reading (end point measurement).

[2] = biological target: KDR kinase (Homo sapiens, UniProt P35968); assay: KDR kinase inhibition assay (LanthaScreen TR-FRET); type: biochemical; settings: TR-FRET assay
Chain of KDR kinase (P35968 20-1356): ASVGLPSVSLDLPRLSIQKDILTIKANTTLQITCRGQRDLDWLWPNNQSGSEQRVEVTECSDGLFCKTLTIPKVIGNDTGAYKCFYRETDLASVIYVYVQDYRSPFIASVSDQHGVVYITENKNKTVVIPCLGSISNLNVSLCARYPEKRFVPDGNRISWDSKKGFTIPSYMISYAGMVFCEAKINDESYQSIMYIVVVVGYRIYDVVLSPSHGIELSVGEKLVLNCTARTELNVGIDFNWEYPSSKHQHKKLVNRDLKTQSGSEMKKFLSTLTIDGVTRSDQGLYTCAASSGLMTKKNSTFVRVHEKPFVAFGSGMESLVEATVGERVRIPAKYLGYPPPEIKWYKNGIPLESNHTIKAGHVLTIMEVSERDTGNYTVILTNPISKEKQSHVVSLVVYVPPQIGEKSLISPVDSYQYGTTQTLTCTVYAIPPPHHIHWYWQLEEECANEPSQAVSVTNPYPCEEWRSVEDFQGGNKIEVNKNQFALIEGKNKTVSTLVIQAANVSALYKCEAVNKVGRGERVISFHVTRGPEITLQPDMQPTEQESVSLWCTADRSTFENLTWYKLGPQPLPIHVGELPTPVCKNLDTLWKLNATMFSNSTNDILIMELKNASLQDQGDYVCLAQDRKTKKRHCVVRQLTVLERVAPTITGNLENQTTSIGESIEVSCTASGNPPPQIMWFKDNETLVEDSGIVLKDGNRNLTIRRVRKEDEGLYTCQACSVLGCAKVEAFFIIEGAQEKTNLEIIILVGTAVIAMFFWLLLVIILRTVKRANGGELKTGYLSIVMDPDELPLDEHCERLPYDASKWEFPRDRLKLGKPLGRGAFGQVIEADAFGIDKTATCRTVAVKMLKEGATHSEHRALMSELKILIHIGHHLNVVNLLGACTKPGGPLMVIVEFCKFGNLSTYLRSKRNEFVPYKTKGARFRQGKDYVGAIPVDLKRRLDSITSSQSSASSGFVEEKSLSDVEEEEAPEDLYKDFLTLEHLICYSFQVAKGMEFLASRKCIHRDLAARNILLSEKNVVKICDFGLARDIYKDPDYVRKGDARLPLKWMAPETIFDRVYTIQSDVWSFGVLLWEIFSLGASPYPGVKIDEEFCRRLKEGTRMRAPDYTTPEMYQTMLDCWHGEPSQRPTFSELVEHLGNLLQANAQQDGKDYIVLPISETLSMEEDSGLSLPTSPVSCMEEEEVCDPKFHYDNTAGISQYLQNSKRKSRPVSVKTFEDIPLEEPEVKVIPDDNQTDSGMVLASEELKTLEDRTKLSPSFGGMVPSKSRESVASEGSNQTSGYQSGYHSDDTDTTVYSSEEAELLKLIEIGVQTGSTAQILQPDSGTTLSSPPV
Experimental: KDR Kinase Inhibition Assay
LanthaScreen™ is the detection of Time-Resolved Fluorescence Resonance Energy Transfer (TR-FRET) using lanthanide chelates to measure interactions between various binding partners. The application of TR-FRET to assay kinase activity was first described by Mathis (1995). A TR-FRET assay was used to measure KDR kinase inhibitory activity. The assay panel was run on a Biomek FX liquid handling workstations. To the assay plates containing 50 nL compound or control solutions, 4.5 μL of buffer A (50 mM TRIS-HCl pH 7.4, 2 mM DTT, 0.02% Tween 20, 0.02 mM Na3VO4, H2O nanpure) including a generic concentration of ATP (2 μM f.c.) was added per well, followed by 4.5 μL of buffer B (4 uM ATP in Buffer A) including a generic concentration of polyEAY (50 nM f.c.), KDR kinase, and divalent cations. Final concentration of kinase and cations were: [KDR kinase]=0.38 nM, [Mg]=10 mM, [Ca]=1 mM. After 1 hour of incubation the kinase reactions were stopped by the addition of 4.5 μL of stop solution D (50 mM EDTA, 20 mM TRIS-HCl pH 7.4, 0.04% NP-40) immediately followed by 4.5 μL of buffer A (50 mM TRIS-HCl pH 7.4, 2 mM DTT, 0.02% Tween 20, 0.02 mM Na3VO4, H2O nanpure) including the Tb-labeled P-20 antibody to give a total detection volume of 18 μL. After an incubation time of 45 min in the dark, the plates were transferred into the Pherastar fluorescence reader for counting. The effect of compound on the enzymatic activity was obtained from the linear progress curves and determined from one reading (end point measurement).

| Structure (SMILES) | IC50 [1] | IC50 [2] |
| --- | --- | --- |
| C[C@@]1(O)[C@@H](N)C[C@@H](c2ccncc2NC(=O)c2nc(-c3ccccc3)cnc2N)OC12CC2 [Example 350, 3-amino-N-(4-((5S,7S,8R)-7-amino-8-hydroxy-8-methyl-4-oxaspiro[2.5]octan-5-yl)pyridin-3-yl)-6-phenylpyrazine-2-carboxamide] | 44 nM | 220 nM |
| Nc1ncc(-c2ccccc2)nc1C(=O)Nc1cnccc1[C@@H]1C[C@H](N)[C@]2(O)CCCC[C@@H]2O1 [Example 243, 3-amino-N-(4-((2S,4S,4aR,8aS)-4-amino-4a-hydroxyoctahydro-2H-chromen-2-yl)pyridin-3-yl)-6-phenylpyrazine-2-carboxamide] | 4100 nM | 8400 nM |
| C[C@@]1(O)[C@H](N)C[C@@H](c2ccncc2NC(=O)c2nc(-c3ccccc3)cnc2N)OC12CC2 [Example 352, 3-amino-N-(4-((5S,7R,8R)-7-amino-8-hydroxy-8-methyl-4-oxaspiro[2.5]octan-5-yl)pyridin-3-yl)-6-phenylpyrazine-2-carboxamide] | 2.5 nM | 28 nM |
| C[C@]1(O)[C@@H](N)C[C@H](c2ccncc2NC(=O)c2nc(-c3ccccc3)cnc2N)OC12CC2 [Example 351, 3-amino-N-(4-((5R,7S,8S)-7-amino-8-hydroxy-8-methyl-4-oxaspiro[2.5]octan-5-yl)pyridin-3-yl)-6-phenylpyrazine-2-carboxamide] | 5 nM | 7 nM |
| Nc1ncc(-c2ccccc2)nc1C(=O)Nc1cnccc1[C@H]1C[C@@H](N)[C@@]2(O)CCCC[C@H]2O1 [Example 197, 3-amino-N-(4-((2R,4R,4aS,8aR)-4-amino-4a-hydroxyoctahydro-2H-chromen-2-yl)pyridin-3-yl)-6-phenylpyrazine-2-carboxamide] | 1.4 nM | 40 nM |
| CC[C@@H]1O[C@H](c2ccncc2NC(=O)c2nc(-c3ccccc3)cnc2N)C[C@H](N)[C@@]1(C)O [Example 345, 3-amino-N-(4-((2S,4S,5R,6S)-4-amino-6-ethyl-5-hydroxy-5-methyltetrahydro-2H-pyran-2-yl)pyridin-3-yl)-6-phenylpyrazine-2-carboxamide] | 920 nM | 4400 nM |
| CC(C)(C)[C@@H]1O[C@H](c2ccncc2NC(=O)c2nc(-c3ccccc3)cnc2N)C[C@H](N)[C@H]1O [Example 355, 3-amino-N-(4-((2S,4S,5R,6S)-4-amino-6-tert-butyl-5-hydroxytetrahydro-2H-pyran-2-yl)pyridin-3-yl)-6-phenylpyrazine-2-carboxamide] | 2600 nM | 6400 nM |
| CC[C@]1(O)[C@H](N)C[C@H](c2ccncc2NC(=O)c2nc(-c3ccccc3)cnc2N)O[C@@H]1C [Example 187, 3-amino-N-(4-((2R,4R,5S,6R)-4-amino-5-ethyl-5-hydroxy-6-methyltetrahydro-2H-pyran-2-yl)pyridin-3-yl)-6-phenylpyrazine-2-carboxamide] | 1.7 nM | 42 nM |

Next, values leading:

| IC50 [1] | IC50 [2] | Structure (SMILES) |
| --- | --- | --- |
| 8.5 nM | 28 nM | Nc1ncc(-c2ccccc2)nc1C(=O)Nc1cnccc1[C@H]1C[C@@H](N)[C@H](O)[C@@H](C2CC2)O1 [Example 346, 3-amino-N-(4-((2R,4R,5S,6R)-4-amino-6-cyclopropyl-5-hydroxytetrahydro-2H-pyran-2-yl)pyridin-3-yl)-6-phenylpyrazine-2-carboxamide] |
| 1000 nM | 2000 nM | Nc1ncc(-c2ccccc2)nc1C(=O)Nc1cnccc1[C@@H]1C[C@H](N)[C@]2(O)CCC[C@@H]2O1 [Example 185, 3-amino-N-(4-((2S,4S,4aR,7aS)-4-amino-4a-hydroxyoctahydrocyclopenta[b]pyran-2-yl)pyridin-3-yl)-6-phenylpyrazine-2-carboxamide] |
| 250 nM | 2300 nM | Nc1ncc(-c2ccccc2)nc1C(=O)Nc1cnccc1[C@@H]1C[C@H](N)[C@@H](O)[C@H](C2CC2)O1 [Example 349, 3-amino-N-(4-((2S,4S,5R,6S)-4-amino-6-cyclopropyl-5-hydroxytetrahydro-2H-pyran-2-yl)pyridin-3-yl)-6-phenylpyrazine-2-carboxamide] |
| 160 nM | 3000 nM | Nc1ncc(-c2ccccc2)nc1C(=O)Nc1cnccc1[C@@H]1C[C@H](N)[C@@H]2CCC[C@@H]2O1 [Example 233, 3-amino-N-(4-((2S,4S,4aS,7aS)-4-aminooctahydrocyclopenta[b]pyran-2-yl)pyridin-3-yl)-6-phenylpyrazine-2-carboxamide] |
| 770 nM | 3700 nM | C[C@@]1(O)[C@@H](N)C[C@@H](c2ccncc2NC(=O)c2nc(-c3ccccc3)cnc2N)O[C@H]1C1CC1 [Example 347, 3-amino-N-(4-((2S,4S,5R,6S)-4-amino-6-cyclopropyl-5-hydroxy-5-methyltetrahydro-2H-pyran-2-yl)pyridin-3-yl)-6-phenylpyrazine-2-carboxamide] |
| 1.8 nM | 13 nM | CC[C@H]1O[C@@H](c2ccncc2NC(=O)c2nc(-c3ccccc3)cnc2N)C[C@@H](N)[C@@H]1O [Example 343, 3-amino-N-(4-((2R,4R,5S,6R)-4-amino-6-ethyl-5-hydroxytetrahydro-2H-pyran-2-yl)pyridin-3-yl)-6-phenylpyrazine-2-carboxamide] |
| 1200 nM | 5100 nM | CC(C)[C@@H]1O[C@H](c2ccncc2NC(=O)c2nc(-c3ccccc3)cnc2N)C[C@H](N)[C@H]1O [Example 240, 3-amino-N-(4-((2S,4S,5R,6S)-4-amino-5-hydroxy-6-isopropyltetrahydro-2H-pyran-2-yl)pyridin-3-yl)-6-phenylpyrazine-2-carboxamide] |
| 5.8 nM | 43 nM | CC(C)[C@H]1O[C@@H](c2ccncc2NC(=O)c2nc(-c3ccccc3)cnc2N)C[C@@H](N)[C@@H]1O [Example 356, 3-amino-N-(4-((2R,4R,5S,6R)-4-amino-5-hydroxy-6-isopropyltetrahydro-2H-pyran-2-yl)pyridin-3-yl)-6-phenylpyrazine-2-carboxamide] |
| 10 nM | 58 nM | C[C@]1(O)[C@H](N)C[C@H](c2ccncc2NC(=O)c2nc(-c3ccccc3)cnc2N)O[C@@H]1C1CC1 [Example 344, 3-amino-N-(4-((2R,4R,5S,6R)-4-amino-6-cyclopropyl-5-hydroxy-5-methyltetrahydro-2H-pyran-2-yl)pyridin-3-yl)-6-phenylpyrazine-2-carboxamide] |
